Test systems include CAKI-1 renal; HCT-116 colon; MCF7 breast; MOLT-4 leukemia; NCI-H23 lung; NCI-H460 lung; SK-MEL-5 melanoma; SK-OV-3 ovarian; U251 CNS; UACC-257 melanoma.
What all share (assay): NCI tumour cell line growth inhibition, 48 h

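Method: 48-hour compound exposure of cells in 96-well plates, five concentrations, linear interpolation of endpoints. GI50: concentration for 50% inhibition of growth. TGI: concentration producing complete growth inhibition.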 A value given as a limit tells only on which side of the number the result lay.

On to `Cc1ccc(C(=O)NC2CCCCC2)cc1-c1ccc(C(=O)NCC2CC2)cc1`, for which the GI50 with CAKI-1 renal was 24.9 µM; in the assay with HCT-116 colon, 20.9 µM; with MCF7 breast, greater than 23.9 µM; in the assay with MOLT-4 leukemia, greater than 25 µM; in the assay on NCI-H23 lung, greater than 25 µM; with NCI-H460 lung it was 16.8 µM. The GI50 with SK-MEL-5 melanoma is 19.9 µM; in the assay on SK-OV-3 ovarian it was greater than 25 µM; in the assay with U251 CNS, greater than 25 µM; with UACC-257 melanoma, greater than 25 µM. Besides, the TGI with CAKI-1 renal, with HCT-116 colon, in the assay on MCF7 breast, in the assay on MOLT-4 leukemia, in the assay on NCI-H23 lung and with NCI-H460 lung was greater than 25 µM in each case. Moreover, the TGI with SK-MEL-5 melanoma, with SK-OV-3 ovarian, in the assay on U251 CNS and with UACC-257 melanoma was greater than 25 µM in each case.
For the molecule `CO[C@H](C(=O)N[C@@H](CCCCNC(=O)OCc1ccccc1)C(=O)OC(C)(C)C)[C@@H]1Cc2cc3cc(OC4CC(OC5CC(O)C(O)C(C)O5)C(O)C(C)O4)c(C)c(O)c3c(O)c2C(=O)[C@H]1OC1CC(OC2CC(OC3CC(C)(O)C(O)C(C)O3)C(O)C(C)O2)C(O)C(C)O1` (stereo not given in full), the GI50 in the assay with CAKI-1 renal was 1.04 µM; in the assay on HCT-116 colon, 0.397 µM; with MCF7 breast, 0.281 µM; in the assay with MOLT-4 leukemia it was 0.381 µM; in the assay on NCI-H23 lung, 0.667 µM; in the assay on NCI-H460 lung it was 0.364 µM. In addition, the GI50 is 0.432 µM in the assay with SK-MEL-5 melanoma, 1.02 µM with SK-OV-3 ovarian, 0.529 µM in the assay with U251 CNS and 0.812 µM in the assay with UACC-257 melanoma. Moreover, the TGI with CAKI-1 renal stood at 3.42 µM; with HCT-116 colon it was 1.63 µM; in the assay with MCF7 breast, 2.03 µM; in the assay with MOLT-4 leukemia it was 2.73 µM; in the assay on NCI-H23 lung it was 2.37 µM; in the assay with NCI-H460 lung, 1.49 µM. The TGI in the assay on SK-MEL-5 melanoma came to 1.59 µM; in the assay with SK-OV-3 ovarian it was 2.81 µM; with U251 CNS it was 1.94 µM; in the assay on UACC-257 melanoma, 4.01 µM.
On to `Cc1ccc(NC(=O)c2ccnc(N3CCCC3)c2)cc1-c1ccc(C(=O)NCC2CC2)cc1`, for which the GI50 was greater than 25 µM in the assay with CAKI-1 renal; greater than 23.8 µM in the assay on HCT-116 colon; greater than 25 µM with MCF7 breast; greater than 25 µM in the assay on MOLT-4 leukemia; greater than 25 µM with NCI-H23 lung; greater than 25 µM in the assay on NCI-H460 lung. Moreover, the GI50 in the assay with SK-MEL-5 melanoma, in the assay on SK-OV-3 ovarian, in the assay with U251 CNS and in the assay with UACC-257 melanoma was greater than 25 µM each time. For the same molecule, the TGI with CAKI-1 renal, in the assay with HCT-116 colon, in the assay with MCF7 breast, in the assay on MOLT-4 leukemia, in the assay with NCI-H23 lung and with NCI-H460 lung was greater than 25 µM each time. Also, the TGI in the assay on SK-MEL-5 melanoma, in the assay with SK-OV-3 ovarian, in the assay with U251 CNS and with UACC-257 melanoma was greater than 25 µM each time.
